Non-standard residues stand in square brackets, D forms with d. Residues, ends and D or L forms follow the SMILES beside them. *: point of attachment. X1 = O=C(CCCC[C@@H]1SC[C@@H]2NC(=O)N[C@@H]21)NCCCOCCOCCOCCCN*; PEG12 = NCCOCCOCCOCCOCCOCCOCCOCCOCCOCCOCCOCCOCCC(=O)O
Experiments:
[1] = tested on: Lysosome labelled H1299 cells; assay: Colocalization with lysosomes by confocal microscopy; type: cell-based, human; details: 24 h, Streptavidin Alexa Fluor 555 conjugate
Protocol: Lysosome-labelled cells (green) were treated with MGS4_V8-Streptavidin Alexa Fluor 555 for 30 min, 1 h, 4 h, or 24 h. Peptide-containing vesicles (red) are seen at 30 min separate from the labeled lysosomes, which by 1 h have started to colocalize with lysosomal vesicles (yellow). MGS4_V8 remains colocalized with lysosomes at 24 h with >70% of the signal colocalized with lysosomes (Fig. 3b). Trafficking, accumulation, and retention in the lysosomes is even more evident in the compressed maximally projected z-stack of the cells (Fig. 3c). Of note, lysosomal regeneration is observed at 24 h as witnessed by increased green signal from the GFP that is not colocalized with previously internalized MGS4_V8. […]
The time course for lysosomal accumulation was performed by imaging at indicated time points using biotinylated peptide conjugated to Streptavidin-Alexa Fluor 555, Streptavidin-Qdot605, or streptavidin-saporin. Saporin was detected using anti-saporin rabbit polyclonal antibody AB-41AP (1:100 dilution) (Advanced Targeting Systems Bio, San Diego, CA). […] Each pixel of a single slice was evaluated for passing the threshold in red (box 1), green (box 2), or both (box3) for colocalization. Mander’s coefficients are calculated for each slice with 0 indicating no colocalization and 1 being complete colocalization.

[2] = tested on: normal human bronchial epithelial cell line (HBEC); assay: Cell internalization by flow cytometry in normal control cells; type: cell-based; details: 50 nM, 1 h
Source text: Optimizing MGS4 as a monomer is efficient but the optimal valency of the truncated peptide may be different than that of the full-length peptide. The peptide was synthesized as a monomer (MGS4_V8), dimer (MGS4_V9), and tetramer (MGS4_V10). To obtain quantitative data, we moved from measuring the relative fluorescence of dye-labeled peptide to the determination of the average number of dye molecules internalized per cell. […] The dimer MGS4_V9 has an EC50 7-fold lower indicating there is a synergistic effect in going from a monomer to a dimer (Fig. 2a and Table 2). However, there is only a 2-fold decrease in going from a dimer to a tetrameric peptide (MGS4_V10). We also calculated the EC50 on three other NSCLC cell lines (Table 2 and Supplementary Figure 3). […]
Non-internalized peptide was removed, and the mean number of peptides internalized per cell was determined to calculate the EC50. […] Error bars, in black, represent standard error measurements and are below the height of the symbols in some cases. b The average number of peptide molecules per cell at 50 nM at 1 h was determined on four NSCLC cell lines and one normal human bronchial epithelial cell line (HBEC). […]
Biotinylated peptide was conjugated to streptavidin-R-phycoerythrin or streptavidin-Alexa Fluor 647 (1:1 molar ratio) for 30 min. […] Flow cytometry was performed on a BD FACSCelesta, and data were analyzed on Flowing software. […]

How did the “signal colocalized with lysosomes” value [1] turn out when CC(=O)N[C@@H](Cc1ccccc1)C(=O)N[C@@H](Cc1c[nH]cn1)C(=O)N[C@@H](C)C(=O)N[C@H](C(=O)N1CCC[C@H]1C(=O)N[C@@H](CCC(N)=O)C(=O)N[C@@H](CO)C(=O)N[C@@H](Cc1ccccc1)C(=O)N[C@@H](Cc1ccc(O)cc1)C(=O)N[C@H](C(=O)NCCOCCOCCOCCOCCOCCOCCOCCOCCOCCOCCOCCOCCC(=O)N[C@@H](CCC(=O)NCCCOCCOCCOCCCNC(=O)CCCC[C@@H]1SC[C@@H]2NC(=O)N[C@@H]21)C(N)=O)[C@@H](C)O)C(C)C [MGS4_V8] (Ac-FHAVPQSFYT[PEG12]E(X1)-NH2) was run?
The value was over 70%.

What about the “internalization in normal cells” value [2] of the same compound?
The value was “minimal internalization”.

Source: paper PMC9845330 (Communications Biology, 2023)
